Assay results: ChEMBL document CHEMBL1132475, “Synthesis and in vitro anti-HIV activity in human monocyte-derived macrophages of 2-oxothiazolidine-4(R)-carboxylic acid derivatives” (1999)

How the values were obtained:
Homo sapiens [1] = species: Homo sapiens; test: The compound was tested for antiviral activity against HIV-1/Ba-L-infected monocyte-derived macrophages in human at a concentration of 0.5 mM; assay type: functional; conditions: at 0.5 mM
Homo sapiens [2] = species: Homo sapiens; test: The compound was tested for antiviral activity against HIV-1/Ba-L-infected monocyte-derived macrophages in human at a concentration of 2 mM; assay type: functional

Row | Compound | Untreated control (Homo sapiens [1]) | Percent of untreated control (Homo sapiens [2])
1 | O=C1N[C@H](C(=O)O)CS1 [PROCYSTEINE] | 81% | 37
2 | Cl.N[C@@H](CCC(=O)N1C(=O)SC[C@H]1C(=O)NCC(=O)O)C(=O)O | – | 159%
3 | O=C(O)CNC(=O)[C@@H]1CSC(=O)N1 | – | 45%
4 | CCOC(=O)[C@@H]1CSC(=O)N1C(=O)CC[C@H](N)C(=O)O.Cl | – | 37%
5 | O=C1N[C@H](C(=O)OCC(=O)c2ccccc2)CS1 | 69% | –
6 | CC(=O)N[C@@H](CS)C(=O)O [ACETYLCYSTEINE] | – | 88%
7 | CC(C)(C)OC(=O)CNC(=O)[C@@H]1CSC(=O)N1 | – | 104%
8 | CC(C)(C)OC(=O)N[C@@H](CCC(=O)N1C(=O)SC[C@H]1C(=O)O)C(=O)OC(C)(C)C | – | 102%
9 | CC(=O)N1C(=O)SC[C@H]1C(=O)O | – | 34%
10 | Cl.N[C@@H](CCC(=O)N1C(=O)SC[C@H]1C(=O)O)C(=O)O | – | 83%
11 | CCOC(=O)[C@@H]1CSC(=O)N1 | – | 86%
